In ChEMBL document CHEMBL5113368, “Meroterpenoids produced by fungi: Occurrence, structural diversity, biological activities, and their molecular targets” (Eur J Med Chem, 2021):
Values after ≈ are worked out from the molar mass of the structure shown.

What was measured:
Suid alphaherpesvirus 1 = test: Antiviral activity against pseudorabies virus assessed as inhibition of viral growth; type: functional, organism-based
HL-60 = test: Cytotoxicity against human HL-60 cells assessed as cell growth inhibition measured after 48 hrs by MTT assay; type: functional, cell-based; details: HL-60, 48 h
Bipolaris oryzae = test: Antifungal activity against Cochliobolus miyabeanus assessed as fungal growth inhibition measured after 24 hrs by microscopic analysis; type: functional, organism-based
[1] = Inhibition of rat intestinal maltase
[2] = Inhibition of rat intestinal sucrase
[3] = Inhibition of rat intestinal alpha-glucosidase
MGC-803 = test: Cytotoxicity against human MGC-803 cells assessed as cell growth inhibition measured after 72 hrs by MTT assay; type: functional
KB = test: Cytotoxicity against human KB cells assessed as cell growth inhibition; type: functional, cell-based
Plasmodium falciparum = test: Antimalarial activity multidrug-resistant Plasmodium falciparum K1 assessed as inhibition of parasite growth by [3H]-hypoxanthine incorporation assay; type: functional, organism-based
NCI-H187 = test: Cytotoxicity against human NCI-H187 cells assessed as cell growth inhibition; type: functional, cell-based
[4] = tested on: Human immunodeficiency virus 1; test: Antiviral activity against HIV1 VSV-G pseudotyped virus infected in human SUP-T1 cells infected using supernatant of virus-producing 293T cells incubated for 48 hrs by firefly luciferase assay; type: functional, organism-based; details: Human immunodeficiency virus 1, SUP-T1, 48 h
Candida albicans = test: Antifungal activity against Candida albicans assessed as fungal growth inhibition incubated for 24 hrs by absorbance based analysis; type: functional
SW480 = test: Cytotoxicity against human SW480 cells assessed as cell growth inhibition measured after 48 hrs by CCK-8 assay; type: functional, cell-based; details: SW480, 48 h
HeLa = test: Cytotoxicity against human HeLa cells assessed as cell growth inhibition measured after 48 hrs by CCK-8 assay; type: functional, cell-based
Verticillium dahliae = test: Antifungal activity against Verticillium dahliae assessed as fungal growth inhibition by modified broth dilution; type: functional
Phytophthora nicotianae = test: Antifungal activity against Phytophthora parasitica assessed as fungal growth inhibition by modified broth dilution; type: functional
Colletotrichum acutatum = test: Antifungal activity against Colletotrichum acutatum assessed as fungal growth inhibition by modified broth dilution; type: functional
Fusarium graminearum = test: Antifungal activity against Fusarium graminearum assessed as fungal growth inhibition by modified broth dilution; type: functional
Sclerotinia sclerotiorum = test: Antifungal activity against Sclerotinia sclerotiorum assessed as fungal growth inhibition by modified broth dilution; type: functional
Bipolaris maydis = test: Antifungal activity against Bipolaris maydis assessed as fungal growth inhibition by modified broth dilution; type: functional
Botrytis cinerea = test: Antifungal activity against Botrytis cinerea assessed as fungal growth inhibition by modified broth dilution; type: functional
[5] = Toxicity in brine shrimp assessed as induction of lethality; details: artemia salina; read-out: LD50 (the source's name)
Hepatitis C virus = test: Antiviral activity against Hepatitis C virus infected in human Huh7.5 cells assessed as inhibition of viral replication; type: functional, organism-based, Hepacivirus hominis
MCF7 = test: Antiproliferative activity against human MCF7 cells assessed as cell growth inhibition; type: functional, cell-based
SF-268 = test: Antiproliferative activity against human SF-268 cells assessed as cell growth inhibition; type: functional, cell-based
HepG2 = test: Antiproliferative activity against human HepG2 cells assessed as cell growth inhibition; type: functional, cell-based
A549 = test: Antiproliferative activity against human A549 cells assessed as cell growth inhibition; type: functional, cell-based
[6] = Antioxidant activity assessed as DPPH radical scavenging activity; type: functional
[7] = Antioxidant activity assessed as ABTS radical scavenging activity; type: functional

For `C[C@@H]1Cc2c3c(cc(O)c2C(=O)O1)O[C@]1(C)CCC[C@](C)([C@H]2C[C@@H](O)C2(C)C)[C@H]1C3`, the EC50 (Suid alphaherpesvirus 1) was 3.35 µM.

Work on `CC1=C[C@H]2c3c(O)cc(C)c(C(=O)O)c3OC(C)(C)[C@H]2CC1` (relative stereo) yielded an IC50 (HL-60) of 24.1 µM.

Compound `C/C=C(\C)C(=O)[C@H](C)C1=CC(=O)C2=C(O[C@@]3(C)CC[C@H]4OC(C(C)(C)O)CC[C@]4(C)[C@H]3C2)C1=O` (some centres undefined) has an IC50 (Bipolaris oryzae) of 0.1 µg/mL (≈ 0.212 µM).

With `C/C(=C\CC/C(=C/Cc1cc(O)ccc1O)C(=O)O)CC[C@@H](O)C(C)(C)O` the IC50 [1] was 11.1 µM, the IC50 [2] was 14.6 µM and the IC50 [3] was 18.1 µM.

`CC(=O)OC[C@@]1(C)[C@@H]2C[C@H](OC(C)=O)[C@@]3(C)Oc4cc(-c5ccccc5)oc(=O)c4[C@H](O)[C@@H]3[C@@]2(C)C=C[C@@H]1O` gave a CC50 (MGC-803) of 19.1 µM.

With `CC(=O)O[C@H]1C[C@@H](OC(C)=O)[C@@]2(C)[C@@H](CC[C@]3(C)[C@@H]2CC[C@]2(C)Oc4oc(C)cc(=O)c4C[C@@H]32)C1(C)C` the IC50 (KB) was 32.7 µM, the IC50 (Plasmodium falciparum) was 6.67 µM and the IC50 (NCI-H187) was 32.7 µM.

With `C/C=C/C=C/C1=C(CO)[C@@H](O)[C@@H](O)[C@@H](CC=C(C)C)C1=O` the IC50 [4] was 18 µM.

Compound `CC(C)(O)[C@@H]1C[C@@H](O)[C@]2(C(=O)O)[C@H](CC[C@@]3(C)[C@H]2CC[C@H]2Cc4c([nH]c5ccccc45)[C@@]23C)O1` has an MIC (Candida albicans) of 12.5 µg/mL (≈ 26.7 µM).

`C[C@]1(O)C=Cc2cc(C(=O)O)ccc2OC1` showed an IC50 (SW480) of 16.3 µM and an IC50 (HeLa) of 38.6 µM.

Compound `CC(C)=CCc1ccc2c3c([nH]c2c1)[C@@]1(C)[C@@H](CC[C@@]2(O)[C@@]45O[C@@H]4[C@H](O)[C@@H](C(C)(C)O)O[C@H]5CC[C@@]21C)C3` has an MIC (Verticillium dahliae) of 25 µg/mL (≈ 47.9 µM), an MIC (Phytophthora nicotianae) of 25 µg/mL (≈ 47.9 µM) and an MIC (Colletotrichum acutatum) of 25 µg/mL (≈ 47.9 µM). For the same compound, the MIC (Fusarium graminearum) was 25 µg/mL (≈ 47.9 µM), the MIC (Sclerotinia sclerotiorum) was 25 µg/mL (≈ 47.9 µM) and the MIC (Bipolaris maydis) was 25 µg/mL (≈ 47.9 µM). The MIC (Botrytis cinerea) was 25 µg/mL (≈ 47.9 µM).

`C=C(C)[C@H]1O[C@H]2CC[C@@]3(C)[C@@](O)(CC[C@@]4(O)[C@@H]5OC(C)(C)[C@H]6C[C@@H]7C(=C)Cc8c(Cl)cc9[nH]c(c5c9c8[C@@]76O)[C@]34C)[C@]23O[C@@H]3[C@H]1O` gave an LC50 [5] of 3.2 µM.

In the case of `CC1=C(O)C(=O)[C@@]23[C@H](C)CC[C@@H]2[C@H](C)CO[C@]32Oc3cc(O)cc(CO)c3C=C12`, the IC50 (Hepatitis C virus) is reported as 9.5 µM.

In the case of `COC(=O)/C=C1\O[C@@]2(C)C/C=C/C(C)(C)C[C@@H]3Cc4c(C)cc(=O)c(O)cc4O[C@]3(C)[C@H](O)C[C@@H]2C[C@@]12OC(=O)C=C2C`, the IC50 (MCF7) is reported as 0.5 µM, the IC50 (SF-268) is reported as 0.5 µM and the IC50 (HepG2) is reported as 0.5 µM. The IC50 (A549) was 0.5 µM.

In the case of `C/C(=C\CCC1=CC(c2cc(O)ccc2O)OC1=O)C(=O)O` (centres undefined), the IC50 [6] is reported as 65.4 µM and the IC50 [7] is reported as 31.2 µM.
